This is an account of results in patent US20230203008A1, “3-AZABICYCLOALKYL DERIVATIVE AND PHARMACEUTICAL COMPOSITION CONTAINING SAME” (LG CHEM, LTD., priority 2020, published 2023).

One may read the Ki as a dissociation constant, usually derived from enzyme kinetics or from competition with a known ligand. Low values mean higher affinity, high ones lower affinity.

The experiment concerns the target T1, KHK (Homo sapiens, UniProt P50053).
T1 construct: His tag; made in house; host or cells: E. coli
T1 sequence (P50053 1-298): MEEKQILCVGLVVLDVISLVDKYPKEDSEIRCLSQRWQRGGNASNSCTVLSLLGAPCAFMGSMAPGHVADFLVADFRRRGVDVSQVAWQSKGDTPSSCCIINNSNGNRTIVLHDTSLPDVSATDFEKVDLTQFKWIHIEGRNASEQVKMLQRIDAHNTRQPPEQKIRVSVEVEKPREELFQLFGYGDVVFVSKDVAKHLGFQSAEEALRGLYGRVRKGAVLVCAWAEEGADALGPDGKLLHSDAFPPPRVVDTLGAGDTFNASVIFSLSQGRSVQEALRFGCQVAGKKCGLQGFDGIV
In words: Measurement of in vitro activity of KHK inhibitor (Transcreener ADP2 TR-FRET Red Assay). The format is biochemical. The conditions noted are these: purified His-tagged KHK expressed in E. coli; 30 min preincubation with inhibitor, 15 min substrate reaction; Morrison equation. As to the method: KHK was expressed in E. coli, and purified using a His tag. To measure the activity of the purified KHK, a Transcreener ADP2 TR-FRET Red Assay kit of BellBrook Labs was used. The Transcreener ADP2 TR-FRET Red Assay kit is a method of measuring an amount of generated ADP using TR-FRET after proper concentrations of KHK and ATP, and a fructose-containing solution were reacted for 15 minutes. To measure the activity of a KHK inhibitor, KHK and a proper concentration of an inhibitor were first reacted for 30 minutes, and reacted with a solution containing a KHK substrate for 15 minutes. In addition, after the TR-FRET reaction for 1 hour, fluorescence was measured using an Envision apparatus of PerkinElmer. A setting value of the Envision apparatus was determined according to the TR-FRET optimization procedures published by BellBrook Labs.
The resulting value for each concentration of the KHK inhibitor is determined a ratio of a 665-nm wavelength and a 615-nm wavelength. Here, the 665/615 ratio was converted to an ADP concentration based on an ADP standard curve, and the inhibitory activity, a Ki value, was obtained using the Morrison equation in statistical software (Prizm).
(In TR-FRET formats the signal depends on donor and acceptor labels being close together.)
On to `C[C@@H]1OCc2c1nc(N1CC[C@@H]1C)nc2N1C[C@@H]2[C@@H](CC(=O)O)[C@@H]2C1` [Example 7, 2-((1R,5S,6S)-3-((S)-7-methyl-2-((S)-2-methylazetidin-1-yl)-5,7-dihydrofuro[3,4-d]pyrimidin-4-yl)-3-azabicyclo[3.1.0]hexan-6-yl)acetic acid], for which the Ki was 100 to 1000 nM.

The molecule `C[C@H]1CCN1c1nc(N2CC3CC(C2)C3CC(=O)O)c2c(n1)C(C)(C)OC2` (stereo partly drawn) [Example 5, 2-(3-(7,7-dimethyl-2-((S)-2-methylazetidin-1-yl)-5,7-dihydrofuro[3,4-d]pyrimidin-4-yl)-3-azabicyclo[3.1.1]heptan-6-yl)acetic acid] showed an inhibitory constant (Ki) of 100 to 1000 nM.

Consider `C[C@H]1CCN1c1nc(N2C[C@H]3C[C@@H](C2)[C@@H]3CC(=O)O)c2c(n1)C(F)(F)CC2` [Example 8, 2-((1R,5S,6S)-3-(7,7-difluoro-2-((S)-2-methylazetidin-1-yl)-6,7-dihydro-5H-cyclopenta[d]pyrimidin-4-yl)-3-azabicyclo[3.1.1]heptan-6-yl)acetic acid], for which the Ki was ≤ 100 nM.

Regarding `C[C@H]1CCN1c1nc(N2C[C@H]3C[C@@H](C2)[C@@H]3CC(=O)O)c2c(c1C#N)CCCC2` [Example 2, 2-((1R,5S,6S)-3-(4-cyano-3-((S)-2-methylazetidin-1-yl)-5,6,7,8-tetrahydroisoquinolin-1-yl)-3-azabicyclo[3.1.1]heptan-6-yl)acetic acid], the inhibitory constant (Ki) is ≤ 100 nM.

As to `C[C@H]1CCN1c1nc(N2C[C@@H]3[C@@H](CC(=O)O)[C@@H]3C2)c2c(n1)C(F)(F)CCC2` [Example 11, 2-((1R,5S,6S)-3-(8,8-difluoro-2-((S)-2-methylazetidin-1-yl)-5,6,7,8-tetrahydroquinazolin-4-yl)-3-azabicyclo[3.1.0]hexan-6-yl)acetic acid], the inhibition constant (Ki) was ≤ 100 nM.

With `C[C@H]1CCN1c1nc(N2C[C@H]3C[C@@H](C2)[C@@H]3CC(=O)O)c2c(n1)C(F)(F)CCC2` [Example 10, 2-((1R,5S,6S)-3-(8,8-difluoro-2-((S)-2-methylazetidin-1-yl)-5,6,7,8-tetrahydroquinazolin-4-yl)-3-azabicyclo[3.1.1]heptan-6-yl)acetic acid], the inhibition constant (Ki) was ≤ 100 nM.

Molecule `O=C(O)C[C@@H]1[C@H]2CN(c3nc(N4CCCC4)nc4c3CCCC4(F)F)C[C@@H]12` [Example 12, 2-((1R,5S,6S)-3-(8,8-difluoro-2-(pyrrolidin-1-yl)-5,6,7,8-tetrahydroquinazolin-4-yl)-3-azabicyclo[3.1.0]hexan-6-yl)acetic acid] registered a Ki of 100 to 1000 nM.

In the case of `C[C@H]1CCN1c1nc(N2C[C@@H]3[C@@H](CC(=O)O)[C@@H]3C2)c2c(n1)C(F)(F)CC2` [Example 9, 2-((1R,5S,6S)-3-(7,7-difluoro-2-((S)-2-methylazetidin-1-yl)-6,7-dihydro-5H-cyclopenta[d]pyrimidin-4-yl)-3-azabicyclo[3.1.0]hexan-6-yl)acetic acid], the inhibition constant (Ki) was ≤ 100 nM.

On to `C[C@H]1CCN1c1nc(N2C[C@H]3C[C@@H](C2)[C@@H]3CC(=O)O)c2c(c1C#N)CCC2` [Example 1, 2-((1R,5S,6S)-3-(4-cyano-3-((S)-2-methylazetidin-1-yl)-6,7-dihydro-5H-cyclopenta[c]pyridin-1-yl)-3-azabicyclo[3.1.1]heptan-6-yl)acetic acid], for which the inhibition constant Ki was ≤ 100 nM.

Consider `C[C@H]1CCN1c1nc(N2C[C@H]3C[C@@H](C2)[C@@H]3CC(=O)O)c2c(c1C#N)CCOC2` [Example 4, 2-((1R,5S,6S)-3-(5-cyano-6-((S)-2-methylazetidin-1-yl)-3,4-dihydro-1H-pyrano[3,4-c]pyridin-8-yl)-3-azabicyclo[3.1.1]heptan-6-yl)acetic acid], for which the inhibition constant (Ki) is ≤ 100 nM.

Consider `C[C@H]1CCN1c1nc(N2CC3CC(C2)C3CC(=O)O)c2c(c1C#N)CCCCC2` (stereo partly drawn) [Example 3, 2-(3-(4-cyano-3-((S)-2-methylazetidin-1-yl)-6,7,8,9-tetrahydro-5H-cyclohepta[c]pyridin-1-yl)-3-azabicyclo[3.1.1]heptan-6-yl)acetic acid], for which the Ki is ≤ 100 nM.

For `C[C@@H]1OCc2c1nc(N1CC[C@@H]1C)nc2N1C[C@H]2C[C@@H](C1)[C@@H]2CC(=O)O` [Example 6, 2-((1R,5S,6S)-3-((S)-7-methyl-2-((S)-2-methylazetidin-1-yl)-5,7-dihydrofuro [3,4-d]pyrimidin-4-yl)-3-azabicyclo[3.1.1]heptan-6-yl)acetic acid], the inhibition constant Ki fell in the range of 100 to 1000 nM.
